A word on the inhibition: it is how much of the control response was suppressed.

For eight compounds, inhibition results are on record in patent publication US20260125359A1, “HETEROARYL COMPOUNDS AS MULTI-TARGET PROTEIN KINASE INHIBITORS” (FUJIAN HAIXI PHARMACEUTICALS CO., LTD., priority 2023, published 2026).

One test addresses PDGFR-α (Homo sapiens, UniProt P16234). Briefly: PDGFR-α in vitro kinase activity assay (HTRF kinEASE TK). The class given is biochemical. As to conditions: for inhibition at 0.01 µM: compound 10 nM, read-out: PDGFRα inhibition rate, 10 nM; for inhibition at 0.1 µM: compound 100 nM, read-out: PDGFRα inhibition rate, 100 nM. An excerpt:
(§1) CSF-1R, PDGFR-α, KDR (VEGFR2) and KIT in vitro Kinase Activity Assay:
(§2) • ENVISION (Perkinelmer, 2104) • White 384-well MicroPlate (Cat #264706, Nunc) • HTRF kinEASE TK kit main reagents (Cat #62TKOPEC, Cisbio) • TK-biotin substrate • Streptavidin-XL665 • TK Antibody-Cryptate • 5× Enzymatic buffer (5×KB) • Staphylococcal enterotoxin B (SEB) • HTRF Detection buffer • CSF-1R (Cat #PV3249, Invitrogen) • PDGFR-α (Cat #PV3811, Invitrogen) • KDR (Cat #PV3660, Invitrogen) • KIT (Cat #08-156, Carna) • ATP 10 mM (Cat #PV3227, Invitrogen) • DTT 1 M (Cat #D5545, Sigma) • MgCl2 1 M (Cat #M8266, Sigma) • MnCl2 1 M (Cat #244589, Sigma)
(§3) Dilute Substrate-TK and ATP to 5× of the reaction concentration using 1× Kinase Buffer.
(§4) Prepare the 5× enzyme working solution using 1× Kinase Buffer.
(§5) Prepare the 4×Sa-XL665 working solution using Detection Buffer.
(§6) Dilute TK-Ab-Cryptate 100 times using Detection Buffer to prepare the working solution.
(§7) After all reagents were prepared according to the methods described above, except for the enzyme, they were equilibrated to room temperature before starting the sample addition. • a) First, 2.5% DMSO solutions were prepared separately using the pre-prepared 1× kinase buffer (DMSO concentrations that were too high could affect the reaction, so the final concentration of DMSO was controlled at 1%). Then, the corresponding 2.5% DMSO solution for the enzyme was used to dilute the test compounds. Compounds were screened with two concentrations of 100 nM and 10 nM. Except for the control wells, 4 μL of the diluted test compound solution was added to the reaction wells, and 4 μL of the pre-prepared 2.5% DMSO solution was added to the control wells. • b) 2 μL of the pre-prepared TK-biotin substrate solution at the corresponding concentration for the kinase was added to all reaction wells. • c) 2 μL of the pre-prepared enzyme solution at the corresponding concentration was added to all reaction wells except the negative control wells. For the negative control wells, 2 μL of 1× kinase buffer corresponding to the enzyme was added to make up the volume. The plate was sealed with sealing film, mixed gently, and incubated at room temperature for 10 min to allow the compounds to fully interact with the enzyme. • d) 2 μL of the ATP solution at the corresponding concentration for the enzyme was added to all reaction wells to initiate the kinase reaction. ATP concentrations and reaction times for enzyme screening are shown in Table 26 • e) Five minutes before the end of the kinase reaction, the detection solution was prepared. The detection buffer from the kit was used to prepare detection solutions for Streptavidin-XL665 and TK antibody europium cryptate (1:100) at the appropriate concentrations for the two enzymes. • f) After the kinase reaction was completed, 5 μL of the diluted Streptavidin-XL665 solution was added to all reaction wells. After mixing, the diluted TK antibody europium cryptate detection solution was immediately added. • g) The plate was sealed and mixed, incubated at room temperature for 1 hour, and the fluorescence signal was detected using the ENVISION (PerkinElmer) instrument (excitation at 320 nm, emission at 665 nm and 615 nm). The inhibition rate for each well was calculated based on the full-activity control wells and background signal wells, and the average value of the replicates was taken.
In general terms: TR-FRET usually uses a lanthanide donor and a delayed reading to cut background.

A further test addresses KDR (VEGFR2) (Homo sapiens, UniProt P35968). Put plainly: KDR (VEGFR2) in vitro kinase activity assay (HTRF kinEASE TK). The class given is biochemical. The note with it: for inhibition at 0.01 µM: compound 10 nM, read-out: VEGFR2 inhibition rate, 10 nM; for inhibition at 0.1 µM: compound 100 nM, read-out: VEGFR2 inhibition rate, 100 nM.
From the text: as §1, §2, §3, §4, §5, §6, §7

Sequence of KDR (VEGFR2) (P35968 20-1356): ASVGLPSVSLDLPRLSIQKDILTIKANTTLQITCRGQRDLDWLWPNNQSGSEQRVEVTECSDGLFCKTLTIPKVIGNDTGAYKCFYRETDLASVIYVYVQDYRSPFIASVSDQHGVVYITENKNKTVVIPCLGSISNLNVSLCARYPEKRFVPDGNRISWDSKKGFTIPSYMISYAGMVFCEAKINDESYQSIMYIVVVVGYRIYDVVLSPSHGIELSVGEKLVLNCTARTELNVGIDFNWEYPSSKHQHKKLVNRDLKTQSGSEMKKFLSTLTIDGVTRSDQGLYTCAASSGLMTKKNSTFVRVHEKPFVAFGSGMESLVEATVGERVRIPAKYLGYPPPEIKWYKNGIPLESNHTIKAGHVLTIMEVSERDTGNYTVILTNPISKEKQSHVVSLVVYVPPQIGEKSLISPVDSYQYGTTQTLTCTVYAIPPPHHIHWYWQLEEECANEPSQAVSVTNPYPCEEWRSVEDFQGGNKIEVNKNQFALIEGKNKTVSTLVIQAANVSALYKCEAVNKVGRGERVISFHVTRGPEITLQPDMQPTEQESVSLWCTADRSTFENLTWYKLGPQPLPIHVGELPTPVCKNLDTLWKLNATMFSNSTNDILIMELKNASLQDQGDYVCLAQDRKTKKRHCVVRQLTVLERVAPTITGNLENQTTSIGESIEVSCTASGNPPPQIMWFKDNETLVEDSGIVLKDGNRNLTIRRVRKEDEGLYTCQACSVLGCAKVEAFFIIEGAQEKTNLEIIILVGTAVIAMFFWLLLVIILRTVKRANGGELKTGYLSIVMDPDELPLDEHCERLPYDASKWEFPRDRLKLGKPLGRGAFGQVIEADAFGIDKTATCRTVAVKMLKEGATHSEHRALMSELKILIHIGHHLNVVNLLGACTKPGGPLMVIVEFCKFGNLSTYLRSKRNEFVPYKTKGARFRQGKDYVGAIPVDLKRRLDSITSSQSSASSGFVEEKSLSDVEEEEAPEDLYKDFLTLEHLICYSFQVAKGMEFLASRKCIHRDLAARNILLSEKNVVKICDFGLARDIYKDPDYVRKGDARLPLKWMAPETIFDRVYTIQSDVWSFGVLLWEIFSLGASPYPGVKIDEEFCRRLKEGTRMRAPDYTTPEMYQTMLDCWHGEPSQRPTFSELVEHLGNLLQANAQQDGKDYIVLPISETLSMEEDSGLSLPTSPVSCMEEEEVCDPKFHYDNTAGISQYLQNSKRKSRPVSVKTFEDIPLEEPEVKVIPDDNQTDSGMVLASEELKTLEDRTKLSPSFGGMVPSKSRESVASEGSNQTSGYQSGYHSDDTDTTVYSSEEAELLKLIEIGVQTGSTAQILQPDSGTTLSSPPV
Sequence of PDGFR-α (P16234 24-1089): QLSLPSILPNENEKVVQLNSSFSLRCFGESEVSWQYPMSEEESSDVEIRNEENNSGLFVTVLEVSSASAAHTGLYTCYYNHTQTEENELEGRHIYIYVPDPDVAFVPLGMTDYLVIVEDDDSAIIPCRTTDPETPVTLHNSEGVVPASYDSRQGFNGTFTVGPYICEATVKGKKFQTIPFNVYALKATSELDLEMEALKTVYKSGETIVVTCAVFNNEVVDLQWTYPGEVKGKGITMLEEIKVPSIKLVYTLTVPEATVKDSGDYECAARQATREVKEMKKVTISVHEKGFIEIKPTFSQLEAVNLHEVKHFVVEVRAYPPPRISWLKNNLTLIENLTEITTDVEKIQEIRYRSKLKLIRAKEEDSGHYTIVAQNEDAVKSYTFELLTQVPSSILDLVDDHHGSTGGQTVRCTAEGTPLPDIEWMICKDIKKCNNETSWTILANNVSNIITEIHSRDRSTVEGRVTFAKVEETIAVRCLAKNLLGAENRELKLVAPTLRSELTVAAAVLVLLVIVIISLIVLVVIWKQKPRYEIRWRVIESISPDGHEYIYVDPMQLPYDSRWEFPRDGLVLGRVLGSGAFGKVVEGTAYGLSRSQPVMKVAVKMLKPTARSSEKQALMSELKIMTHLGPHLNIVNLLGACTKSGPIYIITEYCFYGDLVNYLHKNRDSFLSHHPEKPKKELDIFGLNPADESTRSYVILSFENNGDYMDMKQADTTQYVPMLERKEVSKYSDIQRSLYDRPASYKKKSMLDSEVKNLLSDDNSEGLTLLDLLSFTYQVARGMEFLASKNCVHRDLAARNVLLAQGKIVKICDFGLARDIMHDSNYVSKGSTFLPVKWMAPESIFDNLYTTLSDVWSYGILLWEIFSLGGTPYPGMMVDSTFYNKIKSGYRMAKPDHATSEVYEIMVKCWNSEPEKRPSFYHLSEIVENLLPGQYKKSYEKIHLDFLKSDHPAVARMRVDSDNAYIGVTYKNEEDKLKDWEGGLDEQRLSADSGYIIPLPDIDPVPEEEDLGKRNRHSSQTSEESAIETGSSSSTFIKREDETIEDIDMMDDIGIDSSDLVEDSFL

`Cc1cccc(C(=O)Nc2cccc3c2CC[C@@H]3Oc2cncc(-c3cnn(C)c3)c2)c1` [Compound 15, (S)-3-methyl-N-(1-((5-(1-methyl-1H-pyrazol-4-yl)pyridin-3-yl)oxy)-2,3-dihydro-1H-inden-4-yl)benzamide]: the values for the inhibition at 0.01 µM at PDGFR-α and on KDR (VEGFR2) were 39.6% and 60%, respectively. Also, the inhibition at 0.1 µM at PDGFR-α was 64%; at KDR (VEGFR2), 97.3%.
With `Cn1cc(-c2cncc(N[C@H]3CCc4c(Nc5noc(C(C)(C)C)n5)cccc43)c2)cn1` [Compound 42o], at PDGFR-α, the inhibition at 0.01 µM was 15.4% and the inhibition at 0.1 µM was found to be 57.8%. For the same compound, at KDR (VEGFR2), the inhibition at 0.01 µM stood at 28.9% and the inhibition at 0.1 µM came out at 65.6%.
In the case of `CN1CCc2nc(NC(=O)c3cccc4c3CC[C@@H]4Nc3cncc(-c4cnn(C)c4)c3)sc2C1` [Compound 14ba], on PDGFR-α, the inhibition at 0.01 µM turned out to be 75.5% and the inhibition at 0.1 µM stood at 100%. Besides, at KDR (VEGFR2), the inhibition at 0.01 µM worked out at 29.2% and the inhibition at 0.1 µM came to 82.6%.
The like results for `CN1CCc2ccc(NC(=O)c3cccc4c3CC[C@@H]4Nc3cncc(-c4cnn(C)c4)c3)cc2C1` [Compound 14ap] were, in that order, 72.8%, 98.8%, 14.7% and 66.2%.
The corresponding values for `Cn1ncc2ncc(O[C@H]3CCc4c(C(=O)Nc5cncc(Cl)c5)cccc43)cc21` [Compound 76ac, (S)—N-(5-chloropyridin-3-yl)-1-((1-methyl-1H-pyrazolo[4,3-b]pyridin-6-yl)oxy)-2,3-dihydro-1H-indene-4-carboxamide] are 13.7%, 53.1%, 85.4% and 98.3%.
The corresponding values for `Cn1cc(-c2cncc(N[C@H]3CCc4c(C(=O)Nc5nn(C)c6ccccc56)cccc43)n2)cn1` [Compound 27g, (S)—N-(1-methyl-1H-indazol-3-yl)-1-((6-(1-methyl-1H-pyrazol-4-yl)pyrazin-2-yl)amino)-2,3-dihydro-1H-indene-4-carboxamide] are 94.7%, 98.9%, 88.9% and 100%.
As for `Cc1cccc(NC(=O)c2cccc3c2CC[C@@H]3Nc2cncc(-c3cnn(C)c3)c2)c1` [Compound 13, (S)-1-((5-(1-methyl-1H-pyrazol-4-yl)pyridin-3-yl)amino)-N-(m-tolyl)-2,3-dihydro-1H-indene-4-carboxamide], the inhibition at 0.01 µM at PDGFR-α came out at 78.7%; at KDR (VEGFR2) it was 95.3%. The figures for the inhibition at 0.1 µM on PDGFR-α and on KDR (VEGFR2) were 99.1% and 99.5%, respectively.
The like results for `Cn1cc(-c2cncc(N[C@H]3CCc4c(C(=O)Nc5cncc(Cl)c5)cccc43)c2)cn1` [Compound 14aa, (S)—N-(5-chloropyridin-3-yl)-1-((5-(1-methyl-1H-pyrazol-4-yl)pyridin-3-yl)amino)-2,3-dihydro-1H-indene-4-carboxamide] were, in that order, 72.7%, 83.1%, 98.7% and 99.6%.
